{"source": "patent US6653508B2", "about": "“3-amino-2-benzyl-1-phenylpropane derivatives” (Gruenenthal GmbH, priority 1999, dated 2003)", "note": "Where a name gives a salt, the structure may show the parent alone.", "data": [{"tested_on": "phenylquinone-induced writhing reactions in mice", "assay": "Phenylquinone-induced writhing test in mice", "format": "in vivo", "settings": "Mus musculus, iv; male mice, 10 mg/kg i.v.; phenylquinone i.p. 10 minutes after test substance; writhing counted 5-20 minutes after phenylquinone", "experimental": "The analgesic effectiveness of the compounds according to the invention is investigated in mice by the phenylquinone-induced writhing test as modified by I. C. Hendershot, J. Forsaith in J. Pharmacol. Exp. Ther. 125, 237-240 (1959). For this purpose male mice weighing 25-30 g are used. Groups in each case of 10 animals received per substance a dose, 10 minutes after intravenous administration of the test substances, 0.3 ml/mouse of a 0.02% aqueous solution of phenylquinone (phenylbenzoquinone, Sigma, Deisenhofen; solution prepared under the addition of 5% ethanol and storage in a water bath at 45° C.) applied intraperitoneally. The animals were then placed individually in observation cages. The number of pain-induced stretching movements (so-called writhing reactions=straightening of the body with stretching of the rear extremities) was counted with a push-button counter 5-20 minutes after administration of the phenyl quinone. Animals that had only received physiological saline solution with the phenylquinone served as controls.\nAll substances were tested in a standard dose of 10 mg/kg. The percentage inhibition (% inhibition) of the writhing reactions achieved by a substance was calculated according to the following formula: [formula]", "units": {"inhibition in vivo at 10 mg/kg": "%"}, "values": [{"smiles": "CN(C)CC(Cc1ccccc1)C(=O)c1cccc(OCc2ccccc2)c1", "note": "(racemic) [Example 2, (2RS)-1-(3-benzyloxyphenyl)-2-dimethylaminomethyl-3-phenylpropan-1-one hydrochloride]", "inhibition in vivo at 10 mg/kg": 85}, {"smiles": "CN(C)CC(Cc1ccccc1)C(=O)c1cccc(O)c1.Cl", "note": "(racemic) [Example 6, (2RS)-2-benzyl-3-dimethylamino-1-(3-hydroxyphenyl)-propan-1-one hydrochloride]", "inhibition in vivo at 10 mg/kg": 84}, {"smiles": "COc1cc(OC)cc(C(=O)C(Cc2ccccc2)CN(C)C)c1", "note": "(racemic) [Example 7, (2RS)-2-benzyl-1-(3,5-dimethoxyphenyl)-3-dimethylamino-propan-1-one hydrochloride]", "inhibition in vivo at 10 mg/kg": 75}, {"smiles": "COc1ccc(OC)c(C(=O)C(Cc2ccccc2)CN(C)C)c1.Cl", "note": "(racemic) [Example 8, (2RS)-2-benzyl-1-(2,5-dimethoxyphenyl)-3-dimethylaminopropan-1-one hydrochloride]", "inhibition in vivo at 10 mg/kg": 92}, {"smiles": "CN(C)CC(Cc1ccccc1)C(=O)c1cc(Cl)ccc1Cl", "note": "(racemic) [Example 13, (2RS)-2-benzyl-1-(2,5-dichlorophenyl)-3-dimethylaminopropan-1-one hydrochloride]", "inhibition in vivo at 10 mg/kg": 70}, {"smiles": "CSc1cccc(C(=O)C(Cc2ccccc2)CN(C)C)c1.Cl", "note": "(racemic) [Example 22, (2RS)-2-benzyl-3-dimethylamino-1-(3-methylsulfanylphenyl)-propan-1-one hydrochloride]", "inhibition in vivo at 10 mg/kg": 62}, {"smiles": "CN(C)CC(Cc1ccccc1)C(=O)c1cccc(C#N)c1.Cl", "note": "(racemic) [Example 26, (2RS)-3-(2-benzyl-3-dimethylaminopropionyl)-benzonitrile hydrochloride]", "inhibition in vivo at 10 mg/kg": 79}, {"smiles": "CN(C)CC(Cc1ccccc1)C(=O)c1ccc2cc(O)ccc2c1.Cl", "note": "(racemic) [Example 29, (2RS)-2-benzyl-3-dimethylamino-1-(6-hydroxynaphthalen-2-yl)-propan-1-one hydrochloride]", "inhibition in vivo at 10 mg/kg": 82}, {"smiles": "C/C=C(\\c1cccc(OC)c1)C(Cc1ccccc1)CN(C)C", "note": "(racemic) [Example 65, Z-(2RS)-[2-benzyl-3-(3-methoxyphenyl)-pent-3-enyl]-dimethyl-amine hydrochloride]", "inhibition in vivo at 10 mg/kg": 100}, {"smiles": "COc1ccc(C(=O)C(Cc2ccccc2)CN(C)C)c(C)c1C", "note": "(racemic) [Example 71, (2RS)-2-benzyl-3-dimethylamino-1-(4-methoxy-2,3-dimethylphenyl)-propan-1-one hydrochloride]", "inhibition in vivo at 10 mg/kg": 94}, {"smiles": "COc1cccc(C(=O)C(Cc2cccc(Cl)c2)CN(C)C)c1", "note": "(racemic) [Example 72, (2RS)-2-(3-chlorobenzyl)-3-dimethylamino-1-(3-methoxyphenyl)-propan-1-one hydrochloride]", "inhibition in vivo at 10 mg/kg": 85}, {"smiles": "COc1cccc(C(=O)[C@@H](Cc2ccccc2)CN(C)C)c1", "note": "[Example 11, (−)-(S)-2-benzyl-3-dimethylamino-1-(3-methoxyphenyl)-propan-1-one hydrochloride]", "inhibition in vivo at 10 mg/kg": 90}]}, {"tested_on": "not given", "assay": "not given", "settings": "not given", "units": {"melting point": "°C"}, "values": [{"smiles": "CN(C)CC(Cc1ccccc1)C(=O)c1cccc(Cl)c1Cl.Cl", "note": "(racemic)", "melting point": 114}, {"smiles": "COc1ccc(C(=O)C(Cc2ccccc2)CN(C)C)c(OC)c1OC.Cl", "note": "(racemic)", "melting point": 141}, {"smiles": "COc1cc(C(=O)C(Cc2ccccc2)CN(C)C)cc(OC)c1OC.Cl", "note": "(racemic)", "melting point": 125}, {"smiles": "CN(C)CC(Cc1ccccc1)C(=O)c1cc(O)ccc1O.Cl", "note": "(racemic)", "melting point": 177}, {"smiles": "COc1ccccc1C(=O)C(Cc1ccccc1)CN(C)C.Cl", "note": "(racemic)", "melting point": 159}, {"smiles": "CN(C)CC(Cc1ccccc1)C(=O)c1ccc2ccccc2c1.Cl", "note": "(racemic)", "melting point": 135.3}, {"smiles": "CN(C)CC(Cc1ccccc1)C(=O)c1ccc2ccc3ccccc3c2c1.Cl", "note": "(racemic)", "melting point": 138.7}, {"smiles": "CN(C)CC(Cc1ccccc1)C(=O)c1ccccc1O.Cl", "note": "(racemic)", "melting point": 123}, {"smiles": "COc1ccc2cc(C(=O)C(Cc3ccccc3)CN(C)C)ccc2c1.Cl", "note": "(racemic)", "melting point": "88 to 95"}, {"smiles": "CN(C)CC(Cc1ccccc1)C(=O)c1ccccc1-c1ccccc1.Cl", "note": "(racemic)", "melting point": "134 to 134.8"}, {"smiles": "CN(C)CC(Cc1ccccc1)C(=O)c1ccc(F)cc1Cl.Cl", "note": "(racemic)", "melting point": 150.3}, {"smiles": "COc1cccc(C(=O)C(Cc2ccccc2F)CN(C)C)c1.Cl", "note": "(racemic)", "melting point": 111}, {"smiles": "COc1cccc(C(=O)C(Cc2cccc(F)c2)CN(C)C)c1.Cl", "note": "(racemic)", "melting point": 141}, {"smiles": "COc1cccc(C(=O)C(Cc2ccc(F)cc2)CN(C)C)c1.Cl", "note": "(racemic)", "melting point": 138}, {"smiles": "COc1ccc(CC(CN(C)C)C(=O)c2cccc(OC)c2)cc1.Cl", "note": "(racemic)", "melting point": 134}, {"smiles": "COc1cccc(C(=O)[C@@H](CN(C)C)[C@H](c2ccccc2)c2cccc(OC)c2)c1.Cl", "note": "(racemic)", "melting point": 139.1}, {"smiles": "CC[C@@H](c1ccccc1)[C@H](CN(C)C)C(=O)c1cccc(OC)c1.Cl", "note": "(racemic)", "melting point": 89.5}, {"smiles": "CN(C)CC(Cc1ccccc1)C(=O)c1cccc(C(F)(F)F)c1.Cl", "note": "(racemic)", "melting point": 104}, {"smiles": "CNCC(Cc1cccc(C)c1)C(=O)c1cccc(OC)c1.Cl", "note": "(racemic)", "melting point": "118 to 120"}, {"smiles": "COc1cccc(C(=O)C(Cc2ccc(F)c(F)c2)CN(C)C)c1.Cl", "note": "(racemic)", "melting point": 128}, {"smiles": "CN(C)CC(Cc1ccccc1)C(=O)c1cccc(O)c1.Cl", "note": "(racemic) [Example 6, (2RS)-2-benzyl-3-dimethylamino-1-(3-hydroxyphenyl)-propan-1-one hydrochloride]", "melting point": 169}, {"smiles": "COc1ccc(OC)c(C(=O)C(Cc2ccccc2)CN(C)C)c1.Cl", "note": "(racemic) [Example 8, (2RS)-2-benzyl-1-(2,5-dimethoxyphenyl)-3-dimethylaminopropan-1-one hydrochloride]", "melting point": 149}, {"smiles": "CSc1cccc(C(=O)C(Cc2ccccc2)CN(C)C)c1.Cl", "note": "(racemic) [Example 22, (2RS)-2-benzyl-3-dimethylamino-1-(3-methylsulfanylphenyl)-propan-1-one hydrochloride]", "melting point": 118}, {"smiles": "CN(C)CC(Cc1ccccc1)C(=O)c1cccc(C#N)c1.Cl", "note": "(racemic) [Example 26, (2RS)-3-(2-benzyl-3-dimethylaminopropionyl)-benzonitrile hydrochloride]", "melting point": 154}, {"smiles": "CN(C)CC(Cc1ccccc1)C(=O)c1ccc2cc(O)ccc2c1.Cl", "note": "(racemic) [Example 29, (2RS)-2-benzyl-3-dimethylamino-1-(6-hydroxynaphthalen-2-yl)-propan-1-one hydrochloride]", "melting point": "180 to 182"}]}]}
